“Also recorded” adds a separate entry of the source.
Tests used:
[1] = test system: rat chronic constriction injury (CCI) model; experiment: Mechanical allodynia (von Frey 50% paw withdrawal threshold), systemically administered fluocinolone, rat CCI model; format: in vivo
Protocol: (§1) The purpose of this study is to evaluate the efficacy of fluocinolone acetonide (Sigma Cat# F8880-25MG; Sigma Aldrich, St. Louis, Mo.), a potent corticosteroid, to reduce neuropathic pain in an animal model. This animal model involves pain-associated behaviors in male Wistar rats (300-326 g) following chronic constriction injury (CCI) induced by a procedure similar to that described by Bennett and Xie (1988). Under 2% isoflurane anesthesia, the rat's common sciatic nerve is exposed and freed from adherent tissue at mid-thigh by separating the muscle (biceps femoris) by blunt dissection. Four loose ligatures are placed 1 mm apart, using chromic gut (4-0 absorbable suture, Jorgensen Laboratories, Inc. Loveland, Colo.).
(§2) After CCI induction, each group (n=7) receive treatment via systemic injection. Vehicle control animals (Group 1) receive 1× phosphate buffered solution (PBS) intraperitoneally (IP) every three days, beginning the day of surgery (Day 0), etanercept (Group 2; 3 mg/kg) is administered IP every 3 days beginning Day 0. Animals in treatment Groups 3, 4 and 5 receive fluocinolone (0.5, 5, or 25 μg/kg) subcutaneously (SC) every day beginning Day 0.
(§3) Mechanical allodynia is measured using von Frey monofilament test (Stoelting, Wood Dale, Ill.). The plantar surface of the CCI paw of each animal is tested as described by Chaplan et al. (1994). Each animal is placed in a suspended clear plastic chamber with a wire mesh bottom. Prior to testing, each animal is acclimated for 15 minutes. The 50% paw withdrawal threshold response is determined by sequentially increasing or decreasing the stimulus strength according to the “up-down method” of Dixon (1980).
Testing begins with a filament with a buckling weight of 2.0 g and continued through a series of filaments applied in sequence, up to about 15 g. Each filament is applied with enough pressure to cause a buckle effect. The absence of a paw lifting/withdrawal response after 5 seconds prompts the use of the filament to the next higher weight. Paw withdrawal, indicates a positive response. The testing continues for four additional measurements and is used to calculate the response threshold. Four consecutive positive responses receive a score of 0.25 g, and five consecutive negative responses (i.e., no paw withdrawal) receives a score of 15 g. The mechanical paw withdrawal threshold of each animal is measured one day prior to surgery (per-surgical baseline) and on Days 8, 15, and 22.
(§4) The 50% paw withdrawal threshold is calculated (PWT; Luo and Calcutt, 2002, Chaplan et al. 1994) using the formula 10 (Xf+?d)/10,000, where Xf is the final von Frey filament used (log units), ? is a value that analyzes the response pattern (taken from the table published by Chaplan at al., 1994), and d is the mean difference between stimuli (log units). Data is analyzed using one-way ANOVA on each test.

[2] = Body weight gain during daily SC fluocinolone in CCI rats; format: in vivo, rat; conditions: for body weight difference to vehicle controls: 25 μg/kg SC daily
Protocol: as §1, §2

[3] = test system: rat chronic constriction injury (CCI) model; experiment: Thermal hyperalgesia (paw withdrawal latency), systemically administered fluocinolone, rat CCI model; format: in vivo
Protocol: as §1, §2
(§5) Thermal hyperalgesia is measured using a plantar analgesia instrument (Stoelting, Wood Dale, Ill.). Prior to testing, each animal is placed on the plantar test apparatus, a clear plastic chamber, and is allowed to rest/acclimate for 15 minutes. A radiant (heat) beam stimulus is applied to the CCI paw of each animal. After paw withdrawal, an automated control interrupts both the stimulus and the timer. The heat source device is set at intensity 50, and a maximal cut-off at 15 seconds is set to prevent tissue damage. Thermal hyperalgesia paw withdrawal latency response of the injured site (right hind paw) of each animal is measured 2 days prior to CCI surgery (pre-injury baseline) on Days 7, 14, and 21 after surgery. Data from each test is analyzed by one-way ANOVA.

[4] = test system: rat chronic constriction injury (CCI) model; experiment: Von Frey mechanical threshold, local pump delivery, rat CCI model; format: in vivo; conditions: 0.0032, 0.016, 0.08 ng/hour by pump, each day tested; not statistically significant
Protocol: as §3
Testing begins with a filament with a buckling weight of 2.0 g and continued through a series of filaments applied in sequence, up to about 15 g. Each filament is applied with enough pressure to cause a buckle effect. The absence of a paw lifting/withdrawal response after 5 seconds prompts the use of the filament to the next higher weight. […] The mechanical paw withdrawal threshold of each animal is measured one day prior to surgery (per-surgical baseline) and on Days 8, 15, and 22.
as §4, with “test. […]” for “test.”

[5] = test system: rat chronic constriction injury (CCI) model; experiment: Thermal paw withdrawal latency, local pump delivery, rat CCI model; format: in vivo; conditions: 0.0032, 0.016, and 0.08 ng/hour by osmotic mini-pump, perineural; p<0.05
Protocol: as §5
Following the above experiments, the efficacy of locally administered, low dose of fluocinolone acetonide (Sigma Cat# F8880-25MG; Lot# 043K1167, Sigma Aldrich) and dexamethasone (Sigma Aldrich) is examined in the same CCI rat model. […]
Fluocinolone is administered at doses of 0.0032 ng/hour (0.02304 ng/kg/day), 0.016 ng/hour (0.1152 ng/kg/day), and 0.08 ng/hour (0.576 ng/kg/day). […] Thermal hyperalgesia, induced and measured as described above, is measured on Days −2, 7, 14, and 21. Mechanical allodynia, induced and measured as described above, is measured on Days −1, 8, 15, and 22.

## CC1(C)O[C@@H]2C[C@H]3[C@@H]4C[C@H](F)C5=CC(=O)C=C[C@]5(C)[C@@]4(F)[C@@H](O)C[C@]3(C)[C@]2(C(=O)CO)O1 [Fluocinolone, fluocinolone acetonide]
[1]; 0.5 μg/kg every day, Day 8
  Von Frey Filament "Allodynia" Latencies as Percent of Baseline, Mean: 45.2% of Baseline
[1]; 0.5 μg/kg every day, Day 15
  Von Frey Filament "Allodynia" Latencies as Percent of Baseline, Mean: 47.1% of Baseline
[1]; 0.5 μg/kg every day, Day 22
  Von Frey Filament "Allodynia" Latencies as Percent of Baseline, Mean: 66.2% of Baseline
[1]; 5 μg/kg every day, Day 8
  Von Frey Filament "Allodynia" Latencies as Percent of Baseline, Mean: 54.8% of Baseline
[1]; 5 μg/kg every day, Day 15
  Von Frey Filament "Allodynia" Latencies as Percent of Baseline, Mean: 57.5% of Baseline
[1]; 5 μg/kg every day, Day 22
  Von Frey Filament "Allodynia" Latencies as Percent of Baseline, Mean: 55.2% of Baseline
[1]; 25 μg/kg every day, Day 8
  Von Frey Filament "Allodynia" Latencies as Percent of Baseline, Mean: 76.3% of Baseline
[1]; 25 μg/kg every day, Day 15
  Von Frey Filament "Allodynia" Latencies as Percent of Baseline, Mean: 68.9% of Baseline
[1]; 25 μg/kg every day, Day 22
  Von Frey Filament "Allodynia" Latencies as Percent of Baseline, Mean: 70.3% of Baseline
[1]; 0.5, 5, 25 μg/kg/day, not statistically significant
  mechanical allodynia compared with etanercept: tend to improve mechanical allodynia over etanercept; also recorded: does not reveal any significant differences
[1]; 0.5, 5, or 25 μg/kg/day SC, overall ANOVA
  mechanical allodynia compared with vehicle controls: significantly improves (overall ANOVA) mechanical allodynia
[2]; 25 μg/kg SC daily for 21 days
  body weight gain compared with vehicle controls: significant decrease in body weight gain
[2]; Day 5
  body weight difference to vehicle controls: ~10 g
[2]; by Day 22
  body weight difference to vehicle controls: ~50 g
[2]; 0.5 or 5 μg/kg SC daily for 21 days
  body weight gain: does not have any effect on body weight gain
[3]; 0.5 μg/kg every day, Day 7
  Thermal Paw Withdrawal Latencies as Percent Baseline, Mean: 71.6 Percent Baseline
[3]; 0.5 μg/kg every day, Day 14
  Thermal Paw Withdrawal Latencies as Percent Baseline, Mean: 70.8 Percent Baseline
[3]; 0.5 μg/kg every day, Day 21
  Thermal Paw Withdrawal Latencies as Percent Baseline, Mean: 63.1 Percent Baseline
[3]; 0.5 μg/kg, Day 7, p<0.05
  thermal latency, t-test compared to etanercept: significant increase in latency on Day 7
[3]; 0.5 μg/kg, Days 14 and 21, n.s.
  thermal latency, t-test compared to etanercept: not on Days 14 and 21
[3]; 0.5 μg/kg/day, only statistically significant on Day 7
  thermal latencies compared with etanercept: tends to improve thermal latencies over etanercept
[3]; 5 μg/kg every day, Day 7
  Thermal Paw Withdrawal Latencies as Percent Baseline, Mean: 79.7 Percent Baseline
[3]; 5 μg/kg every day, Day 14
  Thermal Paw Withdrawal Latencies as Percent Baseline, Mean: 83.8 Percent Baseline
[3]; 5 μg/kg every day, Day 21
  Thermal Paw Withdrawal Latencies as Percent Baseline, Mean: 80.2 Percent Baseline
[3]; 5 μg/kg, Days 7, 14, 21, p<0.05
  thermal latency, t-test compared to etanercept: significant increase in latency on all testing days
[3]; 25 μg/kg every day, Day 7
  Thermal Paw Withdrawal Latencies as Percent Baseline, Mean: 67.4 Percent Baseline
[3]; 25 μg/kg every day, Day 14
  Thermal Paw Withdrawal Latencies as Percent Baseline, Mean: 80.9 Percent Baseline
[3]; 25 μg/kg every day, Day 21
  Thermal Paw Withdrawal Latencies as Percent Baseline, Mean: 80.0 Percent Baseline
[3]; 0.5, 5 and 25 μg/kg/day SC, Days 7, 14, 21, p<0.05
  thermal latency relative to vehicle controls: increase in thermal latency relative to vehicle controls; also recorded: significantly increases the paw withdrawal latency period; also recorded: significant increase in thermal latency
[3]; 5 and 25 μg/kg/day, all days tested, etanercept 3 mg/kg IP every 3 days, ANOVA p<0.05
  thermal hyperalgesia compared with etanercept: improves thermal hyperalgesia significantly greater than etanercept
[3]; Day 7, Fisher LSD, p<0.05
  thermal latency, 5 μg/kg dose compared with 25 μg/kg dose: significantly more effective than 25 μg/kg dose
[3]; Days 14 and 21, Fisher LSD, p<0.05
  thermal latency, 5 and 25 μg/kg doses compared with 0.5 μg/kg dose: significantly more effective than the 0.5 μg/kg dose
[4]
  mechanical threshold (von Frey): increases in the mechanical threshold
[5]
  thermal paw withdrawal latency compared to PBS: increases in the thermal paw withdrawal latency tests compared to PBS

Source: patent US20080317805A1, “LOCALLY ADMINISTRATED LOW DOSES OF CORTICOSTEROIDS” (priority 2007, published 2008)
